What was measured:
[1] = test system: Cyp1A1-SEAP transgene (rat Cyp1A1 promoter); test: 3MC induced Cyp1A1-SEAP vector expression in transgenic mice, SEAP activity in urine and blood
Experimental: 3MC was administered to female and male mice (of at least 8 weeks of age) as a suspension in Mazola brand corn oil by i.p. injection. Test animals were either transgenic or non-transgenic age-matched animals with the same genotype were i.p. injected once every 24 hours with either 40 mg/kg or 0.4 mg/kg body weight 3-methylcholanthrene (3MC) in maize oil for three consecutive injections. Control animals were injected with an equal volume of carrier corn oil only. All animals were killed by cervical dislocation 24 hours following the final dose.
Samples of the liver and kidney were removed, washed once in phosphate buffered saline and then homogenised in HB buffer (140 mM NaCl, 50 mM Tris-HCl pH 7.5, 1 mM EDTA, 1% w/v Triton X-100) using a dounce glass homogeniser until a smooth solution was formed. Insoluble proteins were removed by centrifugation at 13000 rpm for 5 minutes and the cleared supernatant was assayed for protein content using the Pierce protein determination kit. For each tissue a final concentration of 0.8 mg/ml was used in the SEAP assay.
Urine and blood samples were centrifuged at 5000 rpm for 5 minutes to remove any solid waste (from the urine) or coagulated cells (from the blood) and were assayed for SEAP activity immediately. Urine was used undiluted in the assay, whereas blood samples were diluted 1:100 and 1:500 with distilled water prior to the SEAP assay. SEAP activity was assayed as described in example 2.

[2] = test system: rat Cyp1A1 promoter (Cyp1A1-SEAP reporter pCW2) in Hepa-C1C7 cells; test: 3MC induced Cyp1A1-SEAP vector (pCW2) expression in transfected cells, SEAP activity in medium; format: cell-based; conditions: 48 hours after induction
Experimental: The sequence coding for 55.5 kD secreted alkaline phosphatase (SEAP), a truncated form of placental alkaline phosphatase enzyme that lacks the GPI anchor, was excised from pSEAP2-Basic (Clonetech) by first converting a BsmI restriction site by removing 3′-overhanging sequences and addition of BglII linker, then excision with BglII.
Hepa-C1C7 cells (cultured in DMEM supplemented with 10% FCS, 2 mM 1-glutamine, at 5% CO2) were transfected with pCW2 either transiently or stably (in conjunction with pSVNeo) using the calcium phosphate co-precipitation method. Briefly, 5 μg of plasmid (+1 μg pSVNeo for stable transfections) was mixed with calcium chloride and HEPES buffered saline to form a calcium phosphate-DNA precipitate which was left incubating with the cells for 5 hours. The medium was then replaced with fresh growth medium or with selection medium (growth medium supplemented with 400 μg/ml G418, for stable transfections). Transiently transfected cells were plated into 6 well plates and were incubated with increasing doses of 3MC dissolved in culture medium. For stable transfections, once individual colonies could be identified on the plates the colonies were pooled and incubated with 2 μg/ml 3MC. Forty eight hours after induction with 3MC the medium was assayed for SEAP activity.
SEAP activity was determined using the “SEAP reporter Gene Assay, chemiluminescent” (Roche). […]

[3] = test system: SFN-hCG(myc) reporter transgene (stratifin promoter) in PC3 xenograft tumours; test: Induced SFN-hCG(myc) transgene expression from xenografted PC3 cell line in vivo, urinary hCG(myc) by sandwich ELISA; set-up: species or system nude mice; conditions: single i.p. camptothecin 15 mg/kg; urine 24 hours after administration; versus vehicle only; FIG. 7
Experimental: The SFN-hCG(myc)-Amp reporter construct generated as described under example 5, was transfected into PC3 cells on 6-well tissue culture plates using FuGene reagent (Roche, Lewes, East Sussex). Construct DNA (equivalent to 1 μg/well) was added to FuGene reagent (3 μl/well) and made up to 100 μl/well with serum free medium. The medium in which the cells were growing was aspirated off and replaced with 100 μl of the above mixture per well. After 24 hours the cells were trypsinised and transferred to 10 cm tissue culture dishes (one well of a six well plate per 10 cm dish). The cells were allowed to grow on these dishes for 7 days prior to selection. […]
The study consisted of 4 groups in total, each containing 4 animals. […] Tumour growth was measured twice-weekly following cell implantation until tumours reached 2-5 mm in diameter. Tumour volume (V) was calculated using the formula: V= 4/3π((d1+d2)/4)^3, where d=mean diameter (n=2)
Treatment began 5 weeks after tumour implantation. […] Quantities of bound HRP were then determined by reaction with tetramethylbenzidine (TMB) and absorbance measurement at 450 nm. No hCG(myc) was detected in the urine of mice carrying xenograft tumours resulting from injection of wild-type PC3 cells. However, hCG(myc) was detected in the urine of mice carrying xenograft tumours resulting from injection of PC3 cells transfected with the SFN-hCG(myc) reporter construct.

Row | SMILES | SEAP in urine of CYS31 transgenic mice ([1]; 0.4 mg/kg 3MC i.p., FIG. 6) | Cyp1a1-SEAP activity detected in urine and blood ([1]; 40 mg/kg 3MC i.p. once every 24 hours, three injections, 3 out of 4 founder transgenic mice analysed (CYS48, CYS50, CYS31, CYS74), FIG. 4) | SEAP activity detected in the urine of transgenic mice ([1]; 3MC i.p., FIG. 5) | SEAP activity in medium (3MC induction of pCW2) ([2]; pCW2 stably-transfected into Hepa1 cells, 2 μg/ml 3MC, FIG. 3) | SEAP activity in medium (3MC induction of pCW2) ([2]; pCW2 transiently-transfected into Hepa1 cells, increasing doses of 3MC, FIG. 2) | urinary hCG(myc) concentration (absorbance at 450 nm) [3]
1 | Cc1ccc2cc3c(ccc4ccccc43)c3c2c1CC3 [3MC, 3-methylcholanthrene] | appearance of SEAP in urine | induction | induced SEAP activity | induction | induction | –
2 | CC[C@@]1(O)C(=O)OCc2c1cc1n(c2=O)Cc2cc3ccccc3nc2-1 [camptothecin] | – | – | – | – | – | increased urinary hCG(myc)

— US20070217999A1, “Excretable Reporter Systems” (Roslin Institute (Edinburgh), priority 2003, published 2007)
